Assay results from patent US6737383B1, “Herbicidal oxadiazolidines” (priority 1999, dated 2004).

Legend:
[1] = tested on: bedstraw; assay: Test B pre/postemergence bedstraw; assay type: in vivo, Galium aparine
How it was run: (§1)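 Herbicidal effect was estimated by eye on a ten-point control scale after plants spent twelve to sixteen days in a greenhouse following soil or foliar treatment. Foliar sprays targeted plants at one to four leaves; all doses were formulated in a non-phytotoxic solvent with surfactant.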

[2] = tested on: blackgrass; assay: Test B pre/postemergence blackgrass; assay type: in vivo, Alopecurus myosuroides
How it was run: as §1

[3] = tested on: surinam grass; assay: Test B pre/postemergence surinam grass; assay type: in vivo, Brachiaria decumbens
How it was run: as §1

[4] = tested on: cocklebur; assay: Test B pre/postemergence cocklebur; assay type: in vivo, Xanthium strumarium
How it was run: as §1

[5] = tested on: corn; assay: Test B pre/postemergence corn; assay type: in vivo, Zea mays
How it was run: as §1

[6] = tested on: crabgrass; assay: Test B pre/postemergence crabgrass; assay type: in vivo, Digitaria sanguinalis
How it was run: as §1

[7] = tested on: giant foxtail; assay: Test B pre/postemergence giant foxtail; assay type: in vivo, Setaria faberii
How it was run: as §1

[8] = tested on: morningglory; assay: Test B pre/postemergence morningglory; assay type: in vivo, Ipomoea hederacea
How it was run: as §1

[9] = tested on: pigweed; assay: Test B pre/postemergence pigweed; assay type: in vivo, Amaranthus retroflexus
How it was run: as §1

[10] = tested on: soybean; assay: Test B pre/postemergence soybean; assay type: in vivo, Glycine max
How it was run: as §1

[11] = tested on: sugar beet; assay: Test B pre/postemergence sugar beet; assay type: in vivo, Beta vulgaris
How it was run: as §1

[12] = tested on: wild oat; assay: Test B pre/postemergence wild oat; assay type: in vivo, Avena fatua
How it was run: as §1

[13] = tested on: purple nutsedge; assay: Test B pre/postemergence purple nutsedge; assay type: in vivo, Cyperus rotundus
How it was run: as §1

[14] = tested on: rice; assay: Test B flood test rice; assay type: in vivo, Oryza sativa
How it was run: (§2)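 Each value is a visual injury score relative to controls, with 10 meaning complete control and 0 no effect. Evaluation took place twelve to sixteen days after the 2-leaf-stage plants were treated and kept in the greenhouse.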

[15] = tested on: smallflower flatsedge; assay: Test B flood test smallflower flatsedge; assay type: in vivo, Cyperus difformis
How it was run: as §2

[16] = tested on: duck salad; assay: Test B flood test duck salad; assay type: in vivo, Heteranthera limosa
How it was run: as §2

[17] = Postemergence, Rate 125 g/ha, scale of 0 to 10 where 0 is no effect and 10 is complete control
[18] = Postemergence, Rate 250 g/ha, scale of 0 to 10, 0 is no effect, 10 is complete control
[19] = Preemergence, Rate 125 g/ha, scale of 0 to 10 where 0 is no effect and 10 is complete control
[20] = Preemergence, Rate 250 g/ha, scale 0 to 10 (0 no effect, 10 complete control)
[21] = Preemergence, Rate 500 g/ha, scale of 0 to 10 where 0 is no effect and 10 is complete control
[22] = Rate 1000 g/ha, Preemergence, scale 0 to 10 (0 no effect, 10 complete control)
[23] = Postemergence, Rate 500 g/ha, scale of 0 to 10 where 0 is no effect and 10 is complete control
[24] = Postemergence, Rate 1000 g/ha, scale 0 to 10 (0 no effect, 10 complete control)
[25] = Pre-emergence, Rate 1000 g/ha, scale 0 to 10 (0 no effect, 10 complete control)
[26] = Rate 125 g/ha, under heading Pre-emergence, flood test species, visual evaluation after twelve to sixteen days
[27] = Rate 250 g/ha, Pre-emergence (flood test species), scale 0 to 10, 0 is no effect, 10 is complete control
[28] = Rate 500 g/ha, Pre-emergence section of Table B, 0 to 10 scale (0 no effect, 10 complete control)

COC(=O)C(C)n1c(=O)on(C(=O)N(c2ccc(F)cc2)C(C)C)c1=O (stereo not shown) [Compound 616]
1: B. signalgrass plant response rating [3, 18] | B. signalgrass plant response rating [3, 21] | Plant response rating, Crabgrass [6, 21] | Giant foxtail plant response rating [7, 19] | Plant response rating, Redroot pigweed [9, 23] | Redroot pigweed plant response rating [9, 19] | Plant response rating, Sugarbeets [11, 21]
0: Plant response rating, Bedstraw [1, 17] | Bedstraw plant response rating [1, 18] | Bedstraw plant response rating [1, 19] | Plant response rating, Bedstraw [1, 20] | Bedstraw plant response rating [1, 21] | Plant response rating, Blackgrass [2, 17] | Blackgrass plant response rating [2, 18] | Blackgrass plant response rating [2, 19] | Plant response rating, B. signalgrass [3, 17] | B. signalgrass plant response rating [3, 19] | Plant response rating, B. signalgrass [3, 20] | Plant response rating, Cocklebur [4, 17] | Cocklebur plant response rating [4, 18] | Plant response rating, Cocklebur [4, 23] | Cocklebur plant response rating [4, 19] | Plant response rating, Cocklebur [4, 20] | Plant response rating, Cocklebur [4, 21] | Plant response rating, Cocklebur [4, 22] | Plant response rating, Corn [5, 17] | Corn plant response rating [5, 18] | Plant response rating, Corn [5, 23] | Corn plant response rating [5, 24] | Corn plant response rating [5, 19] | Plant response rating, Corn [5, 20] | Plant response rating, Corn [5, 21] | Crabgrass plant response rating [6, 19] | Plant response rating, Crabgrass [6, 20] | Plant response rating, Morningglory [8, 17] | Morningglory plant response rating [8, 19] | Plant response rating, Morningglory [8, 20] | Plant response rating, Morningglory [8, 21] | Plant response rating, Morningglory [8, 22] | Plant response rating, Redroot pigweed [9, 17] | Redroot pigweed plant response rating [9, 18] | Soybean plant response rating [10, 19] | Plant response rating, Soybean [10, 20] | Plant response rating, Soybean [10, 21] | Plant response rating, Sugarbeets [11, 17] | Sugarbeets plant response rating [11, 18] | Sugarbeets plant response rating [11, 19] | Plant response rating, Sugarbeets [11, 20] | Plant response rating, Wild oats [12, 17] | Wild oats plant response rating [12, 18] | Plant response rating, Wild oats [12, 23] | Wild oats plant response rating [12, 19] | Plant response rating, Wild oats [12, 20] | Plant response rating, Nutsedge [13, 17] | Nutsedge plant response rating [13, 18] | Plant response rating, Nutsedge [13, 23] | Plant response rating, Nutsedge [13, 20] | Plant response rating, Nutsedge [13, 21] | Plant response rating, Nutsedge [13, 22] | Rice plant response rating [14, 25] | Rice plant response rating (0 to 10 scale, 0 is no effect, 10 is complete control) [14, 26] | Rice plant response rating [14, 27] | Rice plant response rating [14, 28] | S. Flatsedge plant response rating [15, 25] | S. Flatsedge plant response rating (0 to 10 scale, 0 is no effect, 10 is complete control) [15, 26] | S. Flatsedge plant response rating [15, 27] | S. Flatsedge plant response rating [15, 28] | Ducksalad plant response rating [16, 25] | Ducksalad plant response rating (0 to 10 scale, 0 is no effect, 10 is complete control) [16, 26] | Ducksalad plant response rating [16, 27] | Ducksalad plant response rating [16, 28]
9: Plant response rating, Giant foxtail [7, 22]
3: Cocklebur plant response rating [4, 24] | Plant response rating, Giant foxtail [7, 17] | Giant foxtail plant response rating [7, 18] | Redroot pigweed plant response rating [9, 24]
2: Plant response rating, Corn [5, 22] | Plant response rating, Crabgrass [6, 17] | Plant response rating, Sugarbeets [11, 23] | Sugarbeets plant response rating [11, 24] | Plant response rating, Wild oats [12, 21]
6: Blackgrass plant response rating [2, 21] | Plant response rating, B. signalgrass [3, 22] | Plant response rating, Crabgrass [6, 22] | Plant response rating, Giant foxtail [7, 23]
8: Plant response rating, Blackgrass [2, 22] | Crabgrass plant response rating [6, 24] | Plant response rating, Redroot pigweed [9, 20]
7: Plant response rating, Crabgrass [6, 23] | Giant foxtail plant response rating [7, 24] | Plant response rating, Giant foxtail [7, 20] | Plant response rating, Sugarbeets [11, 22]
4: Plant response rating, Bedstraw [1, 22] | Plant response rating, Blackgrass [2, 20] | Plant response rating, B. signalgrass [3, 23] | Crabgrass plant response rating [6, 18] | Morningglory plant response rating [8, 18] | Soybean plant response rating [10, 18] | Plant response rating, Soybean [10, 23] | Soybean plant response rating [10, 24]
5: Plant response rating, Blackgrass [2, 23] | B. signalgrass plant response rating [3, 24] | Plant response rating, Giant foxtail [7, 21] | Plant response rating, Soybean [10, 22]
10: Plant response rating, Morningglory [8, 23] | Morningglory plant response rating [8, 24] | Plant response rating, Redroot pigweed [9, 21] | Plant response rating, Redroot pigweed [9, 22] | Plant response rating, Wild oats [12, 22]
